Columns and labels:
E. coli (ATCC 35150) = assay: E. coli viability on spinach leaves after plasma-activated mist exposure; type: cell-based; conditions: no plasma mist
Description: E. coli (ATCC 35150) cultures were grown to stationary phase in tryptic soy broth (TSB; Difco, Becton Dickinson, Franklin Lakes, N.J.). Aliquots of the prepared cultures were mixed into a volume of sterile Milli-Q water (Millipore, Billerica, Mass.) that yields an overall bacterial inoculum percentage of 2%. Thirty microliter aliquots of the bacterial culture were used to spot inoculate regions on the leaf surface of each leaf sample. Cultures were air dried on the leaf samples for 1 hour.
An Ultrasonic 360 humidifier (Safety 1st; Columbus, Ind.) was connected to plastic tubing and fed into a custom small-scale plasma generator. The plasma configuration consisted of two parallel brass plate electrodes that have an area of 40 mm×45 mm and thickness of 5 mm. Polyetherimide was used as the housing material for the electrodes. The upper electrode was connected to a high voltage power supply (1-20 kV) with operating parameters that can be adjusted while the lower electrode is grounded. The adjustable outlet of the setup released plasma-activated water mist onto inoculated leaves fixed 2 mm beneath the opening. Plasma-activated water mist was applied to the inoculated leaves at intervals from 15 seconds to 2 minutes. […]
Bacterial viability was […]. […] Data was analyzed using GraphPad Prism and InStat graphical and statistical software (GraphPad Software, Inc., La Jolla, Calif.). […]

S. aureus = S. aureus viability on spinach leaves after plasma-activated mist exposure; type: cell-based; conditions: no plasma mist

O=CC=Cc1ccccc1 [cinnamaldehyde]
log10 reduction of E. coli caused by additive alone (E. coli (ATCC 35150)): < 0.4 | log10 reduction of S. aureus caused by additive alone (S. aureus): less than 0.2

Source: patent US20160015038A1, “TREATED CROP PLANTS OR PLANT FOOD PRODUCTS WITH DECREASED BACTERIAL VIABILITY AND METHODS AND APPARATUSES FOR MAKING THE SAME” (EP Technologies LLC, priority 2014, published 2016)
